Activity data for two molecules are collected here from ChEMBL document CHEMBL1158243, “Hydroxycornexistin: A New Phytotoxin from Paecilomyces variotii” (J Nat Prod, 1996).

SMILES strings stand for the structures. Active and inactive are the calls of the source. No cut-off for these calls is given here.

Holding throughout (assay type): functional, organism-based
Assay [1] concerns Sorghum bicolor. The assay is described as follows: Herbicidal activity against Sorghum bicolor assessed as plant death at 15.63 ppm after 2 weeks.
Assay [2] deals with Fallopia convolvulus. The assay is described as follows: Herbicidal activity against Fallopia convolvulus assessed as plant death at 15.63 ppm after 2 weeks.
The test system of assay [3] is Fallopia convolvulus. The assay is described as follows: Herbicidal activity against Fallopia convolvulus assessed as plant death at 31.25 ppm after 2 weeks.
The subject of a further assay is Echinochloa crus-galli. The assay is described as follows: Herbicidal activity against Echinochloa crus-galli assessed as plant death at 7.81 ppm after 2 weeks.
Assay [4] deals with Ipomoea hederacea. The assay can be described thus: Herbicidal activity against Ipomoea hederacea assessed as plant death at 15.63 ppm after 2 weeks.
For assay [5], the system named is Zea mays. The assay can be described thus: Herbicidal activity against Zea mays assessed as plant death at 15.63 ppm after 2 weeks.
The test system of assay [6] is Sorghum bicolor. The assay can be described thus: Herbicidal activity against Sorghum bicolor assessed as plant death at 31.25 ppm after 2 weeks.
Assay [7] has as its system Setaria faberi. The assay can be described thus: Herbicidal activity against Setaria faberi assessed as plant death at 7.81 ppm after 2 weeks.
For assay [8], the system named is Amaranthus. The assay can be described thus: Herbicidal activity against Amaranthus sp. assessed as plant death at 7.81 ppm after 2 weeks.
The test system of assay [9] is Sorghum bicolor. The assay is described as follows: Herbicidal activity against Sorghum bicolor assessed as plant death at 7.81 ppm after 2 weeks.
For assay [10], the system named is Zea mays. The assay is described as follows: Herbicidal activity against Zea mays assessed as plant death at 7.81 ppm after 2 weeks.
In assay [11] the test system is Setaria faberi. The assay is described as follows: Herbicidal activity against Setaria faberi assessed as plant death at 15.63 ppm after 2 weeks.
The subject of assay [12] is Xanthium strumarium. The assay is described as follows: Herbicidal activity against Xanthium strumarium assessed as plant death at 31.25 ppm after 2 weeks.
The subject of assay [13] is Ipomoea hederacea. The assay can be described thus: Herbicidal activity against Ipomoea hederacea assessed as plant death at 7.81 ppm after 2 weeks.
In assay [14] the test system is Triticum aestivum. The assay is described as follows: Herbicidal activity against Triticum aestivum assessed as plant death at 7.81 ppm after 2 weeks.
The subject of assay [15] is Ipomoea hederacea. The assay is described as follows: Herbicidal activity against Ipomoea hederacea assessed as plant death at 31.25 ppm after 2 weeks.
Assay [16] has as its system Triticum aestivum. The assay is described as follows: Herbicidal activity against Triticum aestivum assessed as plant death at 15.63 ppm after 2 weeks.
In assay [17] the test system is Avena sativa. The assay can be described thus: Herbicidal activity against Avena sativa assessed as plant death at 31.25 ppm after 2 weeks.
Assay [18] deals with Amaranthus. The assay can be described thus: Herbicidal activity against Amaranthus sp. assessed as plant death at 15.63 ppm after 2 weeks.
For assay [19], the system named is Xanthium strumarium. The assay is described as follows: Herbicidal activity against Xanthium strumarium assessed as plant death at 7.81 ppm after 2 weeks.
Assay [20] has as its system Avena sativa. The assay can be described thus: Herbicidal activity against Avena sativa assessed as plant death at 7.81 ppm after 2 weeks.
Assay [21] has as its system Avena sativa. The assay can be described thus: Herbicidal activity against Avena sativa assessed as plant death at 15.63 ppm after 2 weeks.
For another assay, the system named is Abutilon theophrasti. The assay is described as follows: Herbicidal activity against Abutilon theophrasti assessed as plant death at 7.81 ppm after 2 weeks.
The subject of assay [22] is Amaranthus. The assay is described as follows: Herbicidal activity against Amaranthus sp. assessed as plant death at 31.25 ppm after 2 weeks.
The test system of the next assay is Digitaria sanguinalis. The assay can be described thus: Herbicidal activity against Digitaria sanguinalis assessed as plant death at 7.81 ppm after 2 weeks.

In the case of `CCC[C@H]1C2=C(C/C(=C/CO)[C@@H](O)CC(=O)[C@H]1O)C(=O)OC2=O`, the outcome with Sorghum bicolor [1], in the assay on Echinochloa crus-galli, with Ipomoea hederacea [4], in the assay on Zea mays [5], with Sorghum bicolor [6] and in the assay on Setaria faberi [7] was inactive. Further, the outcome in the assay on Amaranthus [8], in the assay on Sorghum bicolor [9], in the assay on Zea mays [10], with Setaria faberi [11] and with Ipomoea hederacea [13] was inactive. Moreover, the outcome in the assay on Fallopia convolvulus [2], in the assay with Fallopia convolvulus [3] and in the assay with Xanthium strumarium [12] was Active.
On to `C/C=C1/CC2=C(C(=O)OC2=O)[C@H](CCC)[C@H](O)C(=O)C[C@@H]1O`, for which the result in the assay on Sorghum bicolor [1], with Triticum aestivum [14], in the assay on Ipomoea hederacea [15], with Echinochloa crus-galli, in the assay with Ipomoea hederacea [4] and in the assay with Triticum aestivum [16] was inactive. Besides, the result in the assay with Amaranthus [8], in the assay on Amaranthus [18], in the assay on Sorghum bicolor [9], with Xanthium strumarium [19], in the assay with Zea mays [10] and with Ipomoea hederacea [13] was inactive. Moreover, the result in the assay with Avena sativa [20], in the assay with Avena sativa [21], in the assay with Abutilon theophrasti, with Amaranthus [22] and in the assay with Digitaria sanguinalis was inactive. Further, in the assay on Avena sativa [17], the result was Active.
